From US7767646B2, “Methods of screening for compounds that modulate TAFIa activity, compounds, and methods of using the compounds” (American Diagnostica, Inc., priority 2002, dated 2010) come the findings set out here.

Holding throughout (assay type): biochemical
Assay [1] deals with T1, TAFIa (Homo sapiens, UniProt Q96IY4).
T1 sequence (Q96IY4 115-423): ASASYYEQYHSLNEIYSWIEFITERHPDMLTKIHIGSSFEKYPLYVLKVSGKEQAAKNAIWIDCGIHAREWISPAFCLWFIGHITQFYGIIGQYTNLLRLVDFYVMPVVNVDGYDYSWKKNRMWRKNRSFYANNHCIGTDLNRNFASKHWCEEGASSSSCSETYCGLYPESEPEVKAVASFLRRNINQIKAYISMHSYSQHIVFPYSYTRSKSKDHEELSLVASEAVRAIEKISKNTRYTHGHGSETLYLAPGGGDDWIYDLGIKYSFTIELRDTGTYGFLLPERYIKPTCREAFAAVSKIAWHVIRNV
Put plainly: ActiScreen TAFI HTS assay (TAFIa carboxypeptidase, hippuryl-L-lysine/LOX/HRP). Set-up: made in house; host or cells: native human TAFI (not recombinant). The method, then: The activity of the chemical compounds was assessed in the ActiScreen® TAFI HTS assay, the principle of which is shown below.
The assay is run by mixing TAFIa and test compound in microtiter plate wells. “TAFI developer” is then added to start the reaction which is run at room temperature. The TAFI developer is formulated with hippuryl-L-lysine, lysine oxidase, horseradish peroxidase and ortho-phenylene-diamine. Hippuryl-L-lysine is converted by TAFIa to hippuric acid and L-lysine. Lysine-Oxidase (LOX) converts the lysine to 6-amino-2-oxo-hexanoic acid and hydrogen peroxide. The hydrogen peroxide is used along with ortho-phenylene-diamine […] as substrate for horseradish peroxidase. The reaction produces a yellow color that was monitored for Vmax in a spectrophotometer (SpectroMax 190, Molecular Devices, Sunnyvale, Calif.) in the kinetic mode at 450 nm.
The assay can also be run as an endpoint reaction in which the enzymatic reaction is stopped at a selected point in time with 0.5 M sulphuric acid. The resulting color is read at 490 nm. A TAFI inhibitor will block the first reaction in the cascade in which TAFIa converts hippuryl-L-lysine to hippuric acid and lysine, which finally results in a decrease in Vmax or OD 490 nm relative to control reaction without addition of test compound. The assay has been designed to be run in final concentrations of DMSO of up to 20%. A known inhibitor of TAFIa carboxypeptidase activity, potato tuber carboxypeptidase inhibitor (PTCI), is used as a positive control.
Positive hits were selected based upon the ability of compounds to inhibit carboxypeptidase activity of TAFIa, as measured in the ActiScreen assay. The major criterion for selection of “hits” was based on their potency, as determined by the concentration of compound that inhibits the activity of TAFIa in the Actiscreen TAFI assay by 50% (“IC50”).

The target in the next assay is T2, TAFI (Homo sapiens, UniProt Q96IY4).
T2 construct: purchased Hematological Associates (Essex Junction, Vt.)
T2 sequence (Q96IY4 23-423 limits assumed): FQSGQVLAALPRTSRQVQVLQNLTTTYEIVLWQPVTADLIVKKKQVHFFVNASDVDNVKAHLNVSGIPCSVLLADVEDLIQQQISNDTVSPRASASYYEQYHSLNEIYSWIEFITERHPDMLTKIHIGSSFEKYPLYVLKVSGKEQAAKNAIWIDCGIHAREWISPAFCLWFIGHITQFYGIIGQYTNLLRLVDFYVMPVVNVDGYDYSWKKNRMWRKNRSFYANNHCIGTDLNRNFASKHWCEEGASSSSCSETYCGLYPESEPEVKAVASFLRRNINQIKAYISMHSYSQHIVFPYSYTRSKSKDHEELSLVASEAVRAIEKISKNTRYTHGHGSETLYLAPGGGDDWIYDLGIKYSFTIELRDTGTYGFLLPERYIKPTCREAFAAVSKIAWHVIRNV
Put plainly: TAFI activation by thrombin/thrombomodulin, SDS-PAGE. Particulars: aliquots after 20 minutes, SDS-PAGE (FIG. 4). The method, then: After 20 minutes, aliquots were removed and analyzed by SDS-PAGE. Lane 1. Acetylsalicylic acid; 2. Salicylic acid; 3. 4-hydroxybenzoic acid; 4. 2-hydroxybenzoic acid (salicyluric acid); 5. Ibuprofen; 6. Acetominophen; 7 Control with no addition; 8. TAFI.
Not only, then, do SA and SU inhibit enzyme activity, they also retard the generation of TAFIa. Without being bound by any theory, this provides a dual mechanism by which fibrinolysis is enhanced during high dose aspirin therapy. The proposed pathways by which aspirin and its major metabolites SA and SU enhance fibrinolysis through inhibition of TAFI is presented in FIG. 5. […] Undas et al., 2001, Blood 98:2423-31.

The target of assay [2] is T1, TAFIa. The assay is described as follows: TAFIa carboxypeptidase activity, ActiFLUOR TAFIa fluorescence-based assay. The conditions noted are these: for effect on TAFIa carboxypeptidase activity (residual TAFIa activity): incubation 1 hour at room temperature, various concentrations. Set-up: purchased American Diagnostica Inc. (Greenwich, Conn.) 3874TAFIa. The method, then: Residual TAFIa activity was measured using ActiFLUOR TAFIa.
Residual TAFIa activity was measured using ActiFLUOR TAFIa. […] About 60% TAFIa activity is lost at 25 mM SA.
Materials. TAFI was purchased from Hematological Associates (Essex Junction, Vt.) and TAFIa (3874TAFIa) was from American Diagnostica Inc. (Greenwich, Conn.). Carboxypeptidase activity of TAFIa was determined using ACTIFLUOR™ TAFI (#874FX) a fluorescence-based assay from American Diagnostica (Greenwich, Conn.). ASA, SA and SU were obtained from Sigma Chemical Co. (St. Louis, Mo.).
Results. The present inventors have made the surprising discovery that ASA, SA and SU may shift the hemostatic balance toward a profibrinolytic state by inhibition of TAFIa, the major regulator of fibrinolysis. TAFIa was incubated with various concentrations of ASA, SA and SU for one hour, at room temperature. Residual TAFIa activity was measured using ActiFLUOR TAFIa. […] Catella-Lawson and coworkers recently reported that ibuprofen, taken prior to aspirin, blocks the irreversible inhibition of COX-1 by aspirin and abrogates the anti-platelet activity of aspirin. Catella-Lawson, F. et al., 2001, N. Engl. J. Med. 345(25):1809-17. Since ibuprofen has little effect on TAFI, it was reasonable to conclude that ibuprofen taken prior to aspirin would not block the profibrinolytic activity of aspirin caused by TAFI inhibition.

The subject of the next assay is LOX/HRP. Put plainly: Dereplication assay: reaction of LOX/HRP with lysine. The conditions noted are these: concentrations 5-10 times greater than IC50 for TAFI. The method, then: Positive hits identified with the ActiScreen TAFI assay were dereplicated to ensure that the inhibition of color development is due to blocking of the first reaction of the linked enzyme system catalyzed by TAFIa and not to inhibition of LOX or HRP.
Compounds L278R and LT32 were tested in the dereplication assay, described above.

In the next assay the target is T3, Carboxypeptidase N(CPN) (Homo sapiens, UniProt P15169).
T3 construct: pooled normal human plasma (PNP) was used as the source of CPN; from tissue; host or cells: pooled normal human plasma (PNP), diluted 1:10
T3 sequence (P15169 21-458): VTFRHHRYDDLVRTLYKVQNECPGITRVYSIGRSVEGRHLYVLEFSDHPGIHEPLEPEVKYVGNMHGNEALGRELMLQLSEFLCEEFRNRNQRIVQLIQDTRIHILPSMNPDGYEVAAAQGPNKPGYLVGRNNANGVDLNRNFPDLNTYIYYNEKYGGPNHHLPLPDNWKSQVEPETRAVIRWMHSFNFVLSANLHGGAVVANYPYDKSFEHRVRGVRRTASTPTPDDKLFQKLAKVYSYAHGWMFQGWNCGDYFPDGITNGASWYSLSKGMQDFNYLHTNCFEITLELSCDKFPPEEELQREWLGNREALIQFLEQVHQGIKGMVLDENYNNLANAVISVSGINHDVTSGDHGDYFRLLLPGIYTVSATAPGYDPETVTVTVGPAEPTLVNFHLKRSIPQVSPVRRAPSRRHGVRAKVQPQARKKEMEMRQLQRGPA
T3 sequence (P22792 22-545 partner): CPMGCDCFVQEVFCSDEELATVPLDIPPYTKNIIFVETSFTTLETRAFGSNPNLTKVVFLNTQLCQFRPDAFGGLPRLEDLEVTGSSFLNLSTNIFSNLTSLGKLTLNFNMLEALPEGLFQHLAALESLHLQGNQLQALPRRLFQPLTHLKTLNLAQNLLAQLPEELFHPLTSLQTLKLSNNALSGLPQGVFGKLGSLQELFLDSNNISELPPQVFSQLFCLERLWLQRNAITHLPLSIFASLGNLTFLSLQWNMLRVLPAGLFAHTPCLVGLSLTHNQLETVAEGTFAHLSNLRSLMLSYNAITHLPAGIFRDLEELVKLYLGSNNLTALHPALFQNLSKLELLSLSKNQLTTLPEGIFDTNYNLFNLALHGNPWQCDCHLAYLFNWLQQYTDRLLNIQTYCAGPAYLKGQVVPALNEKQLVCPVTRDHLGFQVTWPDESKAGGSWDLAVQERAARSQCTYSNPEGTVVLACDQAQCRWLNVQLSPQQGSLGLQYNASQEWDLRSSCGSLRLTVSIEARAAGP
The assay is described as follows: Specificity against Carboxypeptidase N in pooled normal human plasma. The conditions noted are these: PNP (1:10), serially diluted compound. The method, then: L278R was also tested for specificity against Carboxypeptidase N(CPN). CPN is the constituitively active carboxypeptidase B-like enzyme in plasma. In this study, pooled normal human plasma (PNP) was used as the source of CPN. The specificity studies were performed by adding PNP (1:10), ActiScreen developer and serially diluted test compound into microtiter wells. Inhibition of color development was an indication of inhibitory activity towards CPN.

For assay [3], the target named is T1, TAFIa. Put plainly: TAFIa inhibition with Actichrome 874 TAFI Developer (Vmax). Set-up: purchased American Diagnostica Inc. (Greenwich, Conn.) 3874TAFIa. The conditions noted are these: different concentrations, Vmax (FIG. 6). On the procedure: Different concentrations of gentisic acid (GA) were incubated with TAFIa and Actichrome 874 TAFI Developer. TAFI activity (Vmax) was determined.

Entries after “also recorded” stand apart in the source; their conditions may differ. Like-named read-outs stand apart in the source and are kept apart here.

Turning to `O=C(N[C@H](CO)Cc1ccccc1)c1cc(O)ccc1O` [JV59, N-[(S)-1-hydroxy-3-phenyl-2-propyl]-2,5-dihdroxybenzamide], on TAFIa [1], the IC50 (commonly the point on the concentration scale where inhibition reaches its midpoint) worked out at 44 µM.
Turning to `CC(=O)Oc1ccccc1C(=O)O` [ASA, acetylsalicylic acid], the “effect on activation of TAFI to TAFIa by thrombin/thrombomodulin” value (“effect … by thrombin/thrombomodulin” below) on TAFI was “did not appear to have a significantly effect”. The “concentration at which significant inhibition of TAFI activity occurs” value at TAFIa [2] (incubation 1 hour at room temperature (FIG. 1)) was roughly 600 µg/mL. In addition, the “effect on TAFIa carboxypeptidase activity (residual TAFIa activity)” value (“effect … (residual TAFIa activity)” for short) on TAFIa [2] is “directly inhibited; also recorded: inhibited in a dose-dependent manner”.
As to `O=C(O)c1ccccc1O` [SA, salicylic acid], the “effect … by thrombin/thrombomodulin” value was “inhibit activation of TAFI to TAFIa” on TAFI and “inhibit the activation of TAFI” at TAFI (listed as salicylic acid). In addition, the TAFIa activity lost result at TAFIa [2] (25 mM, room temperature, 1 hour (FIG. 3)) was “About 60%”. Also, at TAFIa [2], the “effect … (residual TAFIa activity)” value is “directly inhibited; also recorded: inhibited in a dose-dependent manner”.
In the case of `NCCCNC(=O)OCCNC(=O)c1ccccc1O` [L278R, 2-(2-hydroxybenzoylamino)ethyl N-(3-aminopropyl)carbamate], the IC50 was 890 µM at TAFIa [1] (TAFIa preincubated with compound 1 hour at 4° C. prior to assay) and 1540 µM on TAFIa [1] (no preincubation, assay as in Example 3). Further, the “type of inhibition of TAFIa” value at TAFIa [1] (no preincubation) was “competitive type inhibitor”; on TAFIa [1] (preincubated 1 hour at 4° C.) it was “non-competitive-type inhibitor”. Also, the “effect on reaction rate (Vmax) of LOX/HRP with lysine” value in the assay with LOX/HRP is on record as “Neither of the compounds had a significant effect”. For the same compound, the “inhibition of CPN” value at Carboxypeptidase N(CPN) is listed as “did not inhibit CPN”.
Consider `O=C(O)c1cc(O)ccc1O` [gentisic acid], for which the “type of inhibition of TAFIa” value on TAFIa [3] was “competitive inhibition”.
For `O=C(O)CNC(=O)c1ccccc1O` [SU, salicyluric acid (2-hydroxyhippuric acid)], the “effect … by thrombin/thrombomodulin” value at TAFI is “inhibit activation of TAFI to TAFIa”; on TAFI (listed as 2-hydroxybenzoic acid (salicyluric acid)) it was “inhibit the activation of TAFI”. At TAFIa [2] (SU vs SA vs ASA, 1 hour at room temperature), the “rank of potency as TAFIa inhibitor” value is listed as “most effective inhibitor”. Besides, the “effect … (residual TAFIa activity)” value on TAFIa [2] is on record as “directly inhibited; also recorded: inhibited in a dose-dependent manner”.
For the compound `O=C(NCCNC(=O)c1cc(OCc2ccccc2)ccc1OCc1ccccc1)OCCNC(=O)c1ccccc1O` [LT32], on TAFIa [1], the IC50 came out at 225 µM. Moreover, the “type of inhibition of TAFIa” value at TAFIa [1] (no preincubation) is reported as “competitive inhibitor”. The “effect on reaction rate (Vmax) of LOX/HRP with lysine” value with LOX/HRP is “Neither of the compounds had a significant effect”.
As to `CC(C)Cc1ccc(C(C)C(=O)O)cc1` (stereo not drawn) [ibuprofen], the “effect … (residual TAFIa activity)” value at TAFIa [2] was “little inhibitory effect”.
Consider `CC(=O)Nc1ccc(O)cc1` [acetominophen], for which the “effect … (residual TAFIa activity)” value on TAFIa [2] was “little inhibitory effect”.
